Results: ChEMBL document CHEMBL1138381, “Synthesis and anticonvulsant activity of sulfonamide derivatives-hydrophobic domain” (Bioorg Med Chem Lett, 2007)
The source made the active and inactive calls. The rule behind the calls is not given here.

Columns and labels:
Mus musculus [1] = assay: Anticonvulsant activity against maximal electroshock-induced seizure in Albino mouse at 300 mg/kg, ip after 0.5 hrs; type: functional, organism-based; set-up: dose 300 mg/kg
Mus musculus [2] = assay: Anticonvulsant activity against pentylenetetrazole-induced seizures in Albino mouse at 300 mg/kg, ip after 0.5 hrs; type: functional, organism-based; set-up: dose 300 mg/kg
Mus musculus [3] = assay: Anticonvulsant activity against pentylenetetrazole-induced seizures in Albino mouse at 300 mg/kg, ip after 4 hrs; type: functional, organism-based; set-up: dose 300 mg/kg
Mus musculus [4] = assay: Neurotoxicity in Albino mouse at 300 mg/kg, ip after 0.5 hrs by rotarod test; type: toxicity, organism-based; set-up: dose 300 mg/kg, route intraperitoneal; details: in vivo
Mus musculus [5] = assay: Neurotoxicity in Albino mouse at 300 mg/kg, ip after 4 hrs by rotarod test; type: toxicity, organism-based; set-up: dose 300 mg/kg, route intraperitoneal; details: in vivo
Mus musculus [6] = assay: Anticonvulsant activity against maximal electroshock-induced seizure in Albino mouse at 300 mg/kg, ip after 4 hrs; type: functional, organism-based; set-up: dose 300 mg/kg
Mus musculus [7] = assay: Anticonvulsant activity against maximal electroshock-induced seizure in Albino mouse at 100 mg/kg, ip after 0.5 hrs; type: organism-based; set-up: dose 100 mg/kg, route intraperitoneal; details: in vivo
Mus musculus [8] = assay: Anticonvulsant activity against maximal electroshock-induced seizure in Albino mouse at 100 mg/kg, ip after 4 hrs; type: organism-based; set-up: dose 100 mg/kg, route intraperitoneal; details: in vivo
Rattus norvegicus [9] = assay: Anticonvulsant activity against maximal electroshock-induced seizure in rat at 30 mg/kg, po upto 4 hrs; type: functional, organism-based; set-up: dose 30 mg/kg
Rattus norvegicus [10] = assay: Toxicity in rat at 30 mg/kg upto 4 hrs; type: organism-based; set-up: dose 30 mg/kg; details: in vivo
Mus musculus [11] = assay: Anticonvulsant activity against maximal electroshock-induced seizure in Albino mouse at 30 mg/kg, ip after 0.5 hrs; type: functional, organism-based; set-up: dose 30 mg/kg
Mus musculus [12] = assay: Anticonvulsant activity against maximal electroshock-induced seizure in Albino mouse at 30 mg/kg, ip after 4 hrs; type: functional, organism-based; set-up: dose 30 mg/kg
Mus musculus [13] = assay: Neurotoxicity in Albino mouse at 100 mg/kg, ip after 0.5 hrs by rotarod test; type: toxicity, organism-based; set-up: dose 100 mg/kg, route intraperitoneal; details: in vivo
Mus musculus [14] = assay: Neurotoxicity in Albino mouse at 100 mg/kg, ip after 4 hrs by rotarod test; type: toxicity, organism-based; set-up: dose 100 mg/kg, route intraperitoneal; details: in vivo
Rattus norvegicus [15] = assay: Anticonvulsant activity against maximal electroshock-induced seizure in rat at 30 mg/kg, po after 0.5 hrs; type: functional, organism-based; set-up: dose 30 mg/kg
Rattus norvegicus [16] = assay: Anticonvulsant activity against maximal electroshock-induced seizure in rat at 30 mg/kg, po after 0.25 hrs; type: functional, organism-based; set-up: dose 30 mg/kg
Rattus norvegicus [17] = assay: Anticonvulsant activity against maximal electroshock-induced seizure in rat at 30 mg/kg, po after 1 hr; type: functional, organism-based; set-up: dose 30 mg/kg
Mus musculus [18] = assay: Anticonvulsant activity against pentylenetetrazole-induced seizures in Albino mouse at 100 mg/kg, ip after 0.5 hrs; type: functional, organism-based; set-up: dose 100 mg/kg

With `CNC(=S)Nc1ccc(S(=O)(=O)Nc2ccc(Br)cc2)cc1` the Activity (Mus musculus [1]) was “Active”, the Activity (Mus musculus [2]) was “Active” and the Activity (Mus musculus [3]) was “inactive”. For the same compound, the Activity (Mus musculus [4]) was “Toxic” and the Activity (Mus musculus [5]) was “Non-toxic”.

In the case of `CCNC(=S)Nc1ccc(S(=O)(=O)Nc2nc3ccc(F)cc3s2)cc1`, the Activity (Mus musculus [1]) is reported as “Active”, the Activity (Mus musculus [6]) is reported as “inactive” and the Activity (Mus musculus [2]) is reported as “Active”. The Activity (Mus musculus [3]) was “inactive”, the Activity (Mus musculus [4]) was “Non-toxic” and the Activity (Mus musculus [5]) was “Non-toxic”.

For `Cc1ccc(NC(=S)Nc2ccc(S(=O)(=O)Nc3ccc(Cl)cc3)cc2)cc1`, the Activity (Mus musculus [7]) was “Active”, the Activity (Mus musculus [6]) was “Active” and the Activity (Mus musculus [2]) was “Active”. The Activity (Mus musculus [4]) was “Toxic” and the Activity (Mus musculus [5]) was “Toxic”.

`CNC(=S)Nc1ccc(S(=O)(=O)Nc2nc3ccc(Cl)cc3s2)cc1` was tested, and the Activity (Mus musculus [1]) was “inactive”, the Activity (Mus musculus [8]) was “Active” and the Activity (Mus musculus [2]) was “inactive”. For the same compound, the Activity (Mus musculus [3]) was “Active”, the Activity (Mus musculus [4]) was “Non-toxic” and the Activity (Mus musculus [5]) was “Toxic”. The Activity (Rattus norvegicus [9]) was “Active” and the Activity (Rattus norvegicus [10]) was “Non-toxic”.

For `CCNC(=S)Nc1ccc(S(=O)(=O)Nc2nc3ccc(OC)cc3s2)cc1`, the Activity (Mus musculus [1]) was “inactive”, the Activity (Mus musculus [6]) was “inactive” and the Activity (Mus musculus [2]) was “inactive”. The Activity (Mus musculus [3]) was “inactive”, the Activity (Mus musculus [4]) was “Non-toxic” and the Activity (Mus musculus [5]) was “Non-toxic”.

With `CCCC(CCC)C(=O)O` [VALPROIC ACID] the Activity (Mus musculus [1]) was “inactive”, the Activity (Mus musculus [6]) was “inactive” and the Activity (Mus musculus [2]) was “Active”. For the same compound, the Activity (Mus musculus [3]) was “inactive”, the Activity (Mus musculus [4]) was “Non-toxic” and the Activity (Mus musculus [5]) was “Non-toxic”.

In the case of `CNC(=S)Nc1ccc(S(=O)(=O)Nc2ccc(Cl)cc2)cc1`, the Activity (Mus musculus [1]) is reported as “Active”, the Activity (Mus musculus [6]) is reported as “Active” and the Activity (Mus musculus [2]) is reported as “Active”. For the same compound, the Activity (Mus musculus [4]) was “Toxic” and the Activity (Mus musculus [5]) was “Toxic”.

With `CNC(=S)Nc1ccc(S(=O)(=O)Nc2nc3ccc(F)cc3s2)cc1` the Activity (Mus musculus [1]) was “Active”, the Activity (Mus musculus [6]) was “inactive” and the Activity (Mus musculus [2]) was “inactive”. The Activity (Mus musculus [3]) was “inactive”, the Activity (Mus musculus [4]) was “Non-toxic” and the Activity (Mus musculus [5]) was “Non-toxic”.

With `Cc1ccc(NC(=S)Nc2ccc(S(=O)(=O)Nc3ccc(C)cc3)cc2)cc1` the Activity (Mus musculus [1]) was “Active”, the Activity (Mus musculus [6]) was “Active” and the Activity (Mus musculus [2]) was “Active”. The Activity (Mus musculus [3]) was “inactive”, the Activity (Mus musculus [4]) was “Toxic” and the Activity (Mus musculus [5]) was “Non-toxic”.

In the case of `Cc1ccc(NC(=S)Nc2ccc(S(=O)(=O)Nc3ccc(Br)cc3)cc2)cc1`, the Activity (Mus musculus [7]) is reported as “Active”, the Activity (Mus musculus [6]) is reported as “Active” and the Activity (Mus musculus [2]) is reported as “Active”. The Activity (Mus musculus [3]) was “inactive”, the Activity (Mus musculus [4]) was “Toxic” and the Activity (Mus musculus [5]) was “Toxic”.

With `CCC1(C)CC(=O)NC1=O` (stereo not given) [ETHOSUXIMIDE] the Activity (Mus musculus [1]) was “inactive”, the Activity (Mus musculus [6]) was “inactive” and the Activity (Mus musculus [2]) was “Active”. For the same compound, the Activity (Mus musculus [3]) was “inactive”, the Activity (Mus musculus [4]) was “Non-toxic” and the Activity (Mus musculus [5]) was “Non-toxic”.

In the case of `O=C1NC(=O)C(c2ccccc2)(c2ccccc2)N1` [PHENYTOIN], the Activity (Mus musculus [11]) is reported as “Active”, the Activity (Mus musculus [12]) is reported as “Active” and the Activity (Mus musculus [2]) is reported as “inactive”. For the same compound, the Activity (Mus musculus [3]) was “inactive”, the Activity (Mus musculus [13]) was “Toxic” and the Activity (Mus musculus [14]) was “Toxic”. The Activity (Rattus norvegicus [15]) was “Active”.

`CNC(=S)Nc1ccc(S(=O)(=O)Nc2nc3ccc(OC)cc3s2)cc1` was tested, and the Activity (Mus musculus [1]) was “Active”, the Activity (Mus musculus [6]) was “inactive” and the Activity (Mus musculus [2]) was “inactive”. For the same compound, the Activity (Mus musculus [3]) was “inactive”, the Activity (Mus musculus [4]) was “Non-toxic” and the Activity (Mus musculus [5]) was “Non-toxic”.

With `CCNC(=S)Nc1ccc(S(=O)(=O)Nc2nc3ccc(Cl)cc3s2)cc1` the Activity (Mus musculus [1]) was “inactive”, the Activity (Mus musculus [12]) was “Active” and the Activity (Mus musculus [2]) was “inactive”. For the same compound, the Activity (Mus musculus [3]) was “Active”, the Activity (Mus musculus [4]) was “Non-toxic” and the Activity (Mus musculus [5]) was “Toxic”. For the same compound, the Activity (Rattus norvegicus [9]) was “Active”, the Activity (Rattus norvegicus [16]) was “inactive” and the Activity (Rattus norvegicus [15]) was “inactive”. For the same compound, the Activity (Rattus norvegicus [17]) was “inactive” and the Activity (Rattus norvegicus [10]) was “Non-toxic”.

For `NC(=O)N1c2ccccc2C=Cc2ccccc21` [CARBAMAZEPINE], the Activity (Mus musculus [11]) was “Active”, the Activity (Mus musculus [6]) was “inactive” and the Activity (Mus musculus [18]) was “Active”. For the same compound, the Activity (Mus musculus [3]) was “inactive”, the Activity (Mus musculus [13]) was “Toxic” and the Activity (Mus musculus [5]) was “Toxic”.
